# Measured values: ChEMBL document CHEMBL3885881, “DrugMatrix”
# Species on record: Rattus norvegicus
# Assay: DrugMatrix - Regimen: Daily Repeat
# Type: toxicity, organism-based, Sprague-Dawley
# Design: regimen Daily Repeat, gender Male, age 6-8 weeks
# Details: in vivo, po, route oral GAVAGE, vehicle .5 % CMC; for ABSOLUTE BASOPHIL / ABSOLUTE EOSINOPHIL / ABSOLUTE LYMPHOCYTE / ABSOLUTE MONOCYTE / ABSOLUTE SEGMENTED NEUTROPHIL / BASOPHIL / EOSINOPHIL / ERYTHROCYTE COUNT / HEMATOCRIT / HEMOGLOBIN / LEUKOCYTE COUNT / LYMPHOCYTE / MEAN CORPUSCULAR HEMOGLOBIN / MEAN CORPUSCULAR HEMOGLOBIN CONCENTRATION / MEAN CORPUSCULAR VOLUME / MONOCYTE / NEUTROPHIL / NUCLEATED RED BLOOD CELLS / PLATELET COUNT: tissue Blood; for ALANINE AMINOTRANSFERASE / ALBUMIN / ALKALINE PHOSPHATASE / ASPARTATE AMINOTRANSFERASE / BLOOD UREA NITROGEN / CARBON DIOXIDE / CHLORIDE / CHOLESTEROL / CREATINE PHOSPHOKINASE / CREATININE / GLUCOSE / LACTATE DEHYDROGENASE / LIPASE / PHOSPHORUS / POTASSIUM / SODIUM / TOTAL BILIRUBIN / TOTAL PROTEIN / URIC ACID: tissue Plasma
# [1] = 2500 mg/kg, 120 h, dose level High, time 5 day
# [2] = […], 72 h, dose 5.4 mg/Kg, dose level Low, time 3 day
# [3] = […], 120 h, dose 5.4 mg/Kg, dose level Low, time 5 day
structure (smiles),measurement,setting,value
CN1CCC[C@@H]1CCO[C@](C)(c1ccccc1)c1ccc(Cl)cc1 [CLEMASTINE],ABSOLUTE BASOPHIL,[1],0 CELLS/uL
same,ABSOLUTE EOSINOPHIL,[1],0 CELLS/uL
same,ABSOLUTE LYMPHOCYTE,[1],7767.5 CELLS/uL
same,ABSOLUTE MONOCYTE,[1],575 CELLS/uL
same,ABSOLUTE SEGMENTED NEUTROPHIL,[1],8407.5 CELLS/uL
same,BASOPHIL,[1],0%
same,EOSINOPHIL,[1],0%
same,ERYTHROCYTE COUNT,[1],7.67 x10E6/uL
same,HEMATOCRIT,[1],45.5%
same,HEMOGLOBIN,[1],18 G/DL
same,LEUKOCYTE COUNT,[1],16.75 x10E3/uL
same,LYMPHOCYTE,[1],45.5%
same,MEAN CORPUSCULAR HEMOGLOBIN,[1],23.5 pg
same,MEAN CORPUSCULAR HEMOGLOBIN CONCENTRATION,[1],39.55 G/DL
same,MEAN CORPUSCULAR VOLUME,[1],59.4 fL
same,MONOCYTE,[1],3.5%
same,NEUTROPHIL,[1],51%
same,NUCLEATED RED BLOOD CELLS,[1],0 /100WBC
same,PLATELET COUNT,[1],1417 x10E3/uL
same,ALANINE AMINOTRANSFERASE,[1],189 u/L
same,ALBUMIN,[1],3.45 G/DL
same,ALKALINE PHOSPHATASE,[1],274 u/L
same,ASPARTATE AMINOTRANSFERASE,[1],822.5 u/L
same,BLOOD UREA NITROGEN,[1],37 mg/dL
same,CARBON DIOXIDE,[1],21.5 mmol/L
same,CHLORIDE,[1],84 MEQ/L
same,CHOLESTEROL,[1],24 mg/dL
same,CREATINE PHOSPHOKINASE,[1],1389.5 u/L
same,CREATININE,[1],0.24 mg/dL
same,GLUCOSE,[1],68.5 mg/dL
same,LACTATE DEHYDROGENASE,[1],1904 u/L
same,LIPASE,[1],11 u/L
same,PHOSPHORUS,[1],22.25 mg/dL
same,POTASSIUM,[1],6.91 MEQ/L
same,SODIUM,[1],139.35 MEQ/L
same,TOTAL BILIRUBIN,[1],0.25 mg/dL
same,TOTAL PROTEIN,[1],5.3 G/DL
same,URIC ACID,[1],6.55 mg/dL
same,ABSOLUTE BASOPHIL,[2],0 CELLS/uL
same,ABSOLUTE EOSINOPHIL,[2],41.67 CELLS/uL
same,ABSOLUTE LYMPHOCYTE,[2],12326.67 CELLS/uL
same,ABSOLUTE MONOCYTE,[2],80.67 CELLS/uL
same,ABSOLUTE SEGMENTED NEUTROPHIL,[2],1517.67 CELLS/uL
same,BASOPHIL,[2],0%
same,EOSINOPHIL,[2],0.33%
same,ERYTHROCYTE COUNT,[2],5.26 x10E6/uL
same,HEMATOCRIT,[2],33.9%
same,HEMOGLOBIN,[2],13.3 G/DL
same,LEUKOCYTE COUNT,[2],13.97 x10E3/uL
same,LYMPHOCYTE,[2],88%
same,MEAN CORPUSCULAR HEMOGLOBIN,[2],25.3 pg
same,MEAN CORPUSCULAR HEMOGLOBIN CONCENTRATION,[2],39.23 G/DL
same,MEAN CORPUSCULAR VOLUME,[2],64.53 fL
same,MONOCYTE,[2],0.67%
same,NEUTROPHIL,[2],11%
same,NUCLEATED RED BLOOD CELLS,[2],0 /100WBC
same,PLATELET COUNT,[2],1091.33 x10E3/uL
same,ALANINE AMINOTRANSFERASE,[2],56 u/L
same,ALBUMIN,[2],4.07 G/DL
same,ALKALINE PHOSPHATASE,[2],313.67 u/L
same,ASPARTATE AMINOTRANSFERASE,[2],78.33 u/L
same,BLOOD UREA NITROGEN,[2],16 mg/dL
same,CARBON DIOXIDE,[2],30 mmol/L
same,CHLORIDE,[2],100.33 MEQ/L
same,CHOLESTEROL,[2],87 mg/dL
same,CREATINE PHOSPHOKINASE,[2],239.33 u/L
same,CREATININE,[2],0.19 mg/dL
same,GLUCOSE,[2],158.67 mg/dL
same,LACTATE DEHYDROGENASE,[2],247.33 u/L
same,LIPASE,[2],9.33 u/L
same,PHOSPHORUS,[2],11.17 mg/dL
same,POTASSIUM,[2],5.9 MEQ/L
same,SODIUM,[2],141.47 MEQ/L
same,TOTAL BILIRUBIN,[2],0.2 mg/dL
same,TOTAL PROTEIN,[2],5.63 G/DL
same,URIC ACID,[2],1.23 mg/dL
same,ABSOLUTE BASOPHIL,[3],0 CELLS/uL
same,ABSOLUTE EOSINOPHIL,[3],52.33 CELLS/uL
same,ABSOLUTE LYMPHOCYTE,[3],12918 CELLS/uL
same,ABSOLUTE MONOCYTE,[3],156.33 CELLS/uL
same,ABSOLUTE SEGMENTED NEUTROPHIL,[3],1306.67 CELLS/uL
same,BASOPHIL,[3],0%
same,EOSINOPHIL,[3],0.33%
same,ERYTHROCYTE COUNT,[3],5.68 x10E6/uL
same,HEMATOCRIT,[3],35.67%
same,HEMOGLOBIN,[3],14.13 G/DL
same,LEUKOCYTE COUNT,[3],14.43 x10E3/uL
same,LYMPHOCYTE,[3],89.33%
same,MEAN CORPUSCULAR HEMOGLOBIN,[3],24.93 pg
same,MEAN CORPUSCULAR HEMOGLOBIN CONCENTRATION,[3],39.67 G/DL
same,MEAN CORPUSCULAR VOLUME,[3],62.87 fL
same,MONOCYTE,[3],1.33%
same,NEUTROPHIL,[3],9%
same,NUCLEATED RED BLOOD CELLS,[3],0.33 /100WBC
same,PLATELET COUNT,[3],866 x10E3/uL
same,ALANINE AMINOTRANSFERASE,[3],51 u/L
same,ALBUMIN,[3],4.57 G/DL
same,ALKALINE PHOSPHATASE,[3],318.67 u/L
same,ASPARTATE AMINOTRANSFERASE,[3],79.67 u/L
same,BLOOD UREA NITROGEN,[3],14 mg/dL
same,CARBON DIOXIDE,[3],30.33 mmol/L
same,CHLORIDE,[3],101.33 MEQ/L
same,CHOLESTEROL,[3],68.33 mg/dL
same,CREATINE PHOSPHOKINASE,[3],200.33 u/L
same,CREATININE,[3],0.16 mg/dL
same,GLUCOSE,[3],155.33 mg/dL
same,LACTATE DEHYDROGENASE,[3],118.67 u/L
same,LIPASE,[3],10 u/L
same,PHOSPHORUS,[3],10.77 mg/dL
same,POTASSIUM,[3],6.13 MEQ/L
same,SODIUM,[3],141.6 MEQ/L
same,TOTAL BILIRUBIN,[3],0.2 mg/dL
same,TOTAL PROTEIN,[3],6.3 G/DL
same,URIC ACID,[3],1.47 mg/dL
